Assay results reported in paper PMC10155127 (Nature microbiology, 2022).

System: E. coli ATCC 25922
Assay: Time-dependent killing
Assay type: cell-based
Conditions: antibiotic at 4x MIC

With `CC1(C)S[C@@H]2[C@H](NC(=O)[C@H](N)c3ccccc3)C(=O)N2[C@H]1C(=O)O` [Ampicillin, ampicillin] the “c.f.u. in time-dependent killing” value was “fell below the limit of detection”.
